# Reference: patent US11197859B2 (AUTIFONY THERAPEUTICS LIMITED, priority 2010, dated 2021)
# Assays:
# MNTB neurons = test: High-voltage activated potassium currents in MNTB neurons, in vitro; type: cell-based, mouse; conditions: 1 mM
# Experimental: Male CBA/Ca mice (aged 12-16 days) were used in these experiments (in accordance with the UK Animals Scientific Procedures Act, 1986). Brain slices containing the medial nucleus of the trapezoid body (MNTB) were prepared as described previously (Brew and Forsythe, 2005).
# Chemicals and reagents were purchased from Sigma, (Poole, UK) unless otherwise noted. Reference Example RE1 was dissolved in DMSO and diluted in ACSF to the required concentration.
# Recordings from identified MNTB neurons were conducted as previously described (Brew and Forsythe, 2005). Slices was placed in a superfusion chamber on an inverted microscope stage and continuously perfused with gassed (95% O2-5% CO2) ACSF at a rate of 1 ml min-1 at room temperature. Whole-cell recordings were made from visually identified MNTB neurons using an […] amplifier (Molecular Devices, Union City, Calif., USA). Patch solution comprised (in mM) potassium gluconate (97.5), KCl (32.5), Hepes (40), EGTA (5), MgCl2 (1), Na2phosphocreatin (5), pH 7.2 with KOH. Pipettes had resistances of 3-5 MΩ and series resistances were 6-10 MΩ (compensated by 70%, 10 μs lag). Access resistance was frequently monitored and the recording discarded if increases were more than 2 MΩ. […]
# Kv3 channels = conditions: cited from earlier work
# [1] = system: parvalbumin-positive interneurons in the somatosensory cortex; test: Firing of parvalbumin-positive interneurons in somatosensory cortex slices, in vitro; type: cell-based, mouse; conditions: 0.5 mM, vs control slices (0.1% DMSO)
compound,measurement,setting,value
"CC[N+](CC)(CC)CC [TEA, Tetraethylammonium, reference compound]",amplitude of outward high voltage-activated potassium currents evoked by voltage steps to +40 mV,MNTB neurons,significantly reduced
same,inhibition of Kv3 channels,Kv3 channels,inhibit the channels at low millimolar concentrations
same,action potential half-width,[1],significantly increased
same,maximal frequency of action potential firing in response to step currents,[1],fired at a lower maximal frequency
